Assay results reported in the kinase profiling compilation of Christmann-Franck et al. (2016).

Columns and labels:
Test in all cases: KINOMEscan competition binding
Conditions in all cases: compound 10.0 µM
MAP2K6 (human) = MAP2K6 (human) (UniProt P52564)
PIM2 (human) = PIM2 (human) (UniProt Q9P1W9)
FGFR3 (human) = FGFR3 (human) (UniProt P22607)
NTRK1 (human) = NTRK1 (human) (UniProt P04629)
FGFR2 (human) = FGFR2 (human) (UniProt P21802)
FES (human) = FES (human) (UniProt P07332)
STK38L (human) = STK38L (human) (UniProt Q9Y2H1)
SLK (human) = SLK (human) (UniProt Q9H2G2)
Chain of SLK (human) (Q9H2G2 whole entry, looked up): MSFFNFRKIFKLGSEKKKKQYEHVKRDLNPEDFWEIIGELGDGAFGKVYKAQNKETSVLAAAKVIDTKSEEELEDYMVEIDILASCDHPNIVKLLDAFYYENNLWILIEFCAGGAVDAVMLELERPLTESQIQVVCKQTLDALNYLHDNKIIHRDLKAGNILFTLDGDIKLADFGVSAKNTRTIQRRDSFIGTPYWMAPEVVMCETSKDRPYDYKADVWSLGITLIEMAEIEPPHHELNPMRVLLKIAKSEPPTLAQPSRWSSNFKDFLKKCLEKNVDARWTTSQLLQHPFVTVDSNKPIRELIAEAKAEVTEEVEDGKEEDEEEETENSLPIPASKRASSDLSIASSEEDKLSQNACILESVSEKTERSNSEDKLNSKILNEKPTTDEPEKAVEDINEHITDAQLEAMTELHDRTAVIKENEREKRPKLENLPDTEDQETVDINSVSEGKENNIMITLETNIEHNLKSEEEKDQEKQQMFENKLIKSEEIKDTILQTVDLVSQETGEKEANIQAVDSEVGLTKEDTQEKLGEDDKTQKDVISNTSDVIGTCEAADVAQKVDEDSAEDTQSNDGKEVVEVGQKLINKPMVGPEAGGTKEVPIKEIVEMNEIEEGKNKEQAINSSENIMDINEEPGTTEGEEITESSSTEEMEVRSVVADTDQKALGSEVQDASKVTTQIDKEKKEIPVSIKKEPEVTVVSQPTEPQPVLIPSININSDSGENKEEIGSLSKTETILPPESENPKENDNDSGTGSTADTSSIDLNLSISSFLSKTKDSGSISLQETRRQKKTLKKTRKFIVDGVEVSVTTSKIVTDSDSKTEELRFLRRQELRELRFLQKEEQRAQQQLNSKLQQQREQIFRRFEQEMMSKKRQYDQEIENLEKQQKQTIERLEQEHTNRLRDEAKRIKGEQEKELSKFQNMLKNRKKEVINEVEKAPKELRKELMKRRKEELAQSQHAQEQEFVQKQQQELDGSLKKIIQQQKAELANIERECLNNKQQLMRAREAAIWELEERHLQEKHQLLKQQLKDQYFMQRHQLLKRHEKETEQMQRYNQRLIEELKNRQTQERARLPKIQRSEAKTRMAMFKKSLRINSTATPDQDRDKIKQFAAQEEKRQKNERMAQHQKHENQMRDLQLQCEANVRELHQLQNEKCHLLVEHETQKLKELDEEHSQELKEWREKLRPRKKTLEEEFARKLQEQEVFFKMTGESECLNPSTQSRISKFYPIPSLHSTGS

MAPK10 (human) = MAPK10 (human) (UniProt P53779)
FER (human) = FER (human) (UniProt P16591)
NTRK3 (human) = NTRK3 (human) (UniProt Q16288)
Chain of NTRK3 (human) (Q16288 whole entry, looked up): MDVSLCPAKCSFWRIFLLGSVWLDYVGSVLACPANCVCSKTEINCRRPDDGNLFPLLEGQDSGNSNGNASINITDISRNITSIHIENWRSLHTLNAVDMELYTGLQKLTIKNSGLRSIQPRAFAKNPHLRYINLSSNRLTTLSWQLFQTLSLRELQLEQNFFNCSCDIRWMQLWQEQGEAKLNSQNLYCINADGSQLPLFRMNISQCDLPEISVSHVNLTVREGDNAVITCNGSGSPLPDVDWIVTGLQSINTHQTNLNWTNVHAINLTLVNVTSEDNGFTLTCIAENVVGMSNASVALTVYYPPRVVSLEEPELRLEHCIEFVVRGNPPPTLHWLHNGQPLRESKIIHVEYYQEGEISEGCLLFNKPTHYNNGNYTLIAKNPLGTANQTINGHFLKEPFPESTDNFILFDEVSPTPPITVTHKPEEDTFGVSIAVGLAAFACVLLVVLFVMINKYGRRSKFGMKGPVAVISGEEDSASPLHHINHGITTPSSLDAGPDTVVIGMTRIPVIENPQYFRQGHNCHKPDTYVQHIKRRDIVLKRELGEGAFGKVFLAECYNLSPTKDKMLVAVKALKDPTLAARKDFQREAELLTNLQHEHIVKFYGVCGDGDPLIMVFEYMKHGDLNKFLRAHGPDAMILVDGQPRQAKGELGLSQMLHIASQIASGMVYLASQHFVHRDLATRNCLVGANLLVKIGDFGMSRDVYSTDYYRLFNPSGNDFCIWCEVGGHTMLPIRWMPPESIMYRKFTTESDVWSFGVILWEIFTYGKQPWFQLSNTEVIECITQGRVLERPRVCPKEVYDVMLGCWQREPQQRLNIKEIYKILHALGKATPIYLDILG

SRMS (human) = SRMS (human) (UniProt Q9H3Y6)
DYRK1B (human) = DYRK1B (human) (UniProt Q9Y463)
Chain of DYRK1B (human) (Q9Y463 whole entry, looked up): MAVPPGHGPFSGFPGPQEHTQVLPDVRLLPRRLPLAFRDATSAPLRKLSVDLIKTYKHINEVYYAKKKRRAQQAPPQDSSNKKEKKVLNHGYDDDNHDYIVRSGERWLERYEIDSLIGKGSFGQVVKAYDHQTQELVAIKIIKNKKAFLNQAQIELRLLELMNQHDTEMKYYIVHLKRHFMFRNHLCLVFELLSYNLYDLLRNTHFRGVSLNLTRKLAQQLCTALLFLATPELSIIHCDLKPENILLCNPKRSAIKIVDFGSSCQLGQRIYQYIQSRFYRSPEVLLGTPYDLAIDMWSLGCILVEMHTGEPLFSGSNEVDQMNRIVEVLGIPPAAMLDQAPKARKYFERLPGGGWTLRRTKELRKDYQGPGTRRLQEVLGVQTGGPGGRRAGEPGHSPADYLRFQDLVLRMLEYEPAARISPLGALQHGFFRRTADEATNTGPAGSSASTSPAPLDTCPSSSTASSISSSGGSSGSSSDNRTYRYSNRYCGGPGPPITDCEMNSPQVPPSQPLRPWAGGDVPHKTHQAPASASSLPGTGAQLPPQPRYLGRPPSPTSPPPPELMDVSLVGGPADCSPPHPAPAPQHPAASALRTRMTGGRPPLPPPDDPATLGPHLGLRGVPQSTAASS

PAK4 (human) = PAK4 (human) (UniProt O96013)
[1] = tested on: EIF2AK4 KD2 (human), Q9P2K8 [S808G]
PDGFRA (human) = PDGFRA (human) (UniProt P16234)
RPS6KA3 KD1 (human) = RPS6KA3 KD1 (human) (UniProt P51812)
MINK1 (human) = MINK1 (human) (UniProt Q8N4C8)
BMPR1B (human) = BMPR1B (human) (UniProt O00238)
Chain of BMPR1B (human) (O00238 whole entry, looked up): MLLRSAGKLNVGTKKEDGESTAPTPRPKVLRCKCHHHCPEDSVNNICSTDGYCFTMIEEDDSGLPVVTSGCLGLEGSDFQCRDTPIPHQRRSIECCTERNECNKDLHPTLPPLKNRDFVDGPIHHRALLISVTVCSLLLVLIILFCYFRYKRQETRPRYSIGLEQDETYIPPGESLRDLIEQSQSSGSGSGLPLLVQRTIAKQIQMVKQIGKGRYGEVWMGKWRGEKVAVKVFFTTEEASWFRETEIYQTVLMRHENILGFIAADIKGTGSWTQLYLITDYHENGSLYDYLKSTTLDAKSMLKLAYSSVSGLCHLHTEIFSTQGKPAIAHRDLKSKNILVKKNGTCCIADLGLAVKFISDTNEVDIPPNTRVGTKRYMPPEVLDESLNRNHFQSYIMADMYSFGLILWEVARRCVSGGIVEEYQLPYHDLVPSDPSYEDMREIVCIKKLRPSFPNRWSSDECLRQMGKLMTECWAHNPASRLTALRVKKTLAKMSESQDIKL

CSNK1G1 (human) = CSNK1G1 (human) (UniProt Q9HCP0)
EPHA1 (human) = EPHA1 (human) (UniProt P21709)
LCK (human) = LCK (human) (UniProt P06239)
STK32B (human) = STK32B (human) (UniProt Q9NY57)
FLT3 (human) = FLT3 (human) (UniProt P36888)
PAK7 (human) = PAK7 (human) (UniProt Q9P286)
GAK (human) = GAK (human) (UniProt O14976)
TTK (human) = TTK (human) (UniProt P33981)
MAP4K1 (human) = MAP4K1 (human) (UniProt Q92918)
TAOK3 (human) = TAOK3 (human) (UniProt Q9H2K8)
STK16 (human) = STK16 (human) (UniProt O75716)
MAP2K2 (human) = MAP2K2 (human) (UniProt P36507)
BLK (human) = BLK (human) (UniProt P51451)
MKNK2 (human) = MKNK2 (human) (UniProt Q9HBH9)
EPHA8 (human) = EPHA8 (human) (UniProt P29322)
MLTK (human) = MLTK (human) (UniProt Q9NYL2)
MAP3K10 (human) = MAP3K10 (human) (UniProt Q02779)
MAP2K4 (human) = MAP2K4 (human) (UniProt P45985)
Chain of MAP2K4 (human) (P45985 whole entry, looked up): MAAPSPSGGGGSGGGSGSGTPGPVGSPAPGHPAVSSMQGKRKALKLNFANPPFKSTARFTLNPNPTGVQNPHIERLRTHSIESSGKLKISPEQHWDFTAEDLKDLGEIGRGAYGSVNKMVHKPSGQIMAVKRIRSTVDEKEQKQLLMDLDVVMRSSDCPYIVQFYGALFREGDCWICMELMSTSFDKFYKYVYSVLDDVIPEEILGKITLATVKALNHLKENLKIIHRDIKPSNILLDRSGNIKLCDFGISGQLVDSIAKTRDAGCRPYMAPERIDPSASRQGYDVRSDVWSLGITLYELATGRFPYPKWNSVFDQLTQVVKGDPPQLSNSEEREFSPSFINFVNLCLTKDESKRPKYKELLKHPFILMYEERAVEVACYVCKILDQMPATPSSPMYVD

RPS6KA1 KD1 (human) = RPS6KA1 KD1 (human) (UniProt Q15418)
DCLK1 (human) = DCLK1 (human) (UniProt O15075)
GSK3B (human) = GSK3B (human) (UniProt P49841)

Chain of MAP2K6 (human) (P52564 whole entry, looked up): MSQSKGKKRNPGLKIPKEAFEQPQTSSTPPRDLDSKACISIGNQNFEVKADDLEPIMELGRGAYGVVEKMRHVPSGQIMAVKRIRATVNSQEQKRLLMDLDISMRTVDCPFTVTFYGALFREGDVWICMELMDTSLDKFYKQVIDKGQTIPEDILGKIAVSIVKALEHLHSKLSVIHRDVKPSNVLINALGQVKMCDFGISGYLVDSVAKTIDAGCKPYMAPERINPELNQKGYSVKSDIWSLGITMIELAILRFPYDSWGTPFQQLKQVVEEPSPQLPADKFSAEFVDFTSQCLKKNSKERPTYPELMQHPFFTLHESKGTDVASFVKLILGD
Chain of PIM2 (human) (Q9P1W9 whole entry, looked up): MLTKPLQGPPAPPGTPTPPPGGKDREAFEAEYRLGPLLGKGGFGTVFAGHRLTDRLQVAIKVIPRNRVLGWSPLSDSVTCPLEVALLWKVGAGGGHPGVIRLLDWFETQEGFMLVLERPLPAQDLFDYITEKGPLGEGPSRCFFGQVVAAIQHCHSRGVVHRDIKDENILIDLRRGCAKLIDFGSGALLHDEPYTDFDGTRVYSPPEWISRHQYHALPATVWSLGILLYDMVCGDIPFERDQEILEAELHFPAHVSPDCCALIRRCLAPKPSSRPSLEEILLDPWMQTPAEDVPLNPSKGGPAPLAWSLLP
Chain of NTRK1 (human) (P04629 whole entry, looked up): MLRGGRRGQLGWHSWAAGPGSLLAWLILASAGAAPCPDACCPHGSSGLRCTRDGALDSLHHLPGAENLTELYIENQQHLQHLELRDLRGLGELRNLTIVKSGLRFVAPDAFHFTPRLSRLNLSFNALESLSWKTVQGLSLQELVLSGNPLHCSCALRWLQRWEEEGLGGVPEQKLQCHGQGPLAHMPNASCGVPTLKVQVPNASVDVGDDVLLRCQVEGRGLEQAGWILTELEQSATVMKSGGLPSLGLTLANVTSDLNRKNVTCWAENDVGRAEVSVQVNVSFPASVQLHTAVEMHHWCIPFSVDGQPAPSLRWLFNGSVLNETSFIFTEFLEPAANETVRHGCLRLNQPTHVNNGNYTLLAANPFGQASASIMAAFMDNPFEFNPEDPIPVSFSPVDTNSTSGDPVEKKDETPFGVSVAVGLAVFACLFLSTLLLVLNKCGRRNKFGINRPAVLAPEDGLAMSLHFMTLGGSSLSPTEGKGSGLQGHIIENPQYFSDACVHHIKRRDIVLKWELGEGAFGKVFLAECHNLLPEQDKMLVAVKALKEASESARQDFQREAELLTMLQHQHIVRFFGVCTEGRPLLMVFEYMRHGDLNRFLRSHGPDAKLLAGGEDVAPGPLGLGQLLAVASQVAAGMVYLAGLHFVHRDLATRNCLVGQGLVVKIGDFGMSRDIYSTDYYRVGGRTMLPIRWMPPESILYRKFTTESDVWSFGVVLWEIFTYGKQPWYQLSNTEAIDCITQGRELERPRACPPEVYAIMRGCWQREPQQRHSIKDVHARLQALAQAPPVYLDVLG

Structure (SMILES) | kinase still bound, per cent of control (MAP2K6 (human)) [%] | kinase still bound, per cent of control (PIM2 (human)) [%] | kinase still bound, per cent of control (FGFR3 (human)) [%] | kinase still bound, per cent of control (NTRK1 (human)) [%] | kinase still bound, per cent of control (FGFR2 (human)) [%] | kinase still bound, per cent of control (STK38L (human)) [%] | kinase still bound, per cent of control (SLK (human)) [%] | kinase still bound, per cent of control (MAPK10 (human)) [%] | kinase still bound, per cent of control (FER (human)) [%] | kinase still bound, per cent of control (NTRK3 (human)) [%] | kinase still bound, per cent of control (SRMS (human)) [%] | kinase still bound, per cent of control (DYRK1B (human)) [%] | kinase still bound, per cent of control (PAK4 (human)) [%] | kinase still bound, per cent of control [1] [%] | kinase still bound, per cent of control (PDGFRA (human)) [%] | kinase still bound, per cent of control (RPS6KA3 KD1 (human)) [%] | kinase still bound, per cent of control (MINK1 (human)) [%] | kinase still bound, per cent of control (BMPR1B (human)) [%] | kinase still bound, per cent of control (EPHA1 (human)) [%] | kinase still bound, per cent of control (LCK (human)) [%] | other results
O=C(O)c1ccc(Nc2ncc3c(n2)-c2ccc(Cl)cc2C(c2c(F)cccc2F)=NC3)cc1 | 72 | 36 | 9 | 35 | 7.7 | 100 | 80 | 100 | 22 | 65 | 54 | 91 | 90 | 79 | 56 | 28 | 100 | 86 | 15 | 1.6 | kinase still bound, per cent of control (FES (human)): 100%; kinase still bound, per cent of control (CSNK1G1 (human)): 37%; kinase still bound, per cent of control (STK32B (human)): 38%; kinase still bound, per cent of control (FLT3 (human)): 80%; kinase still bound, per cent of control (PAK7 (human)): 93%; kinase still bound, per cent of control (GAK (human)): 49%; kinase still bound, per cent of control (TTK (human)): 63%; kinase still bound, per cent of control (MAP4K1 (human)): 71%; kinase still bound, per cent of control (TAOK3 (human)): 95%; kinase still bound, per cent of control (STK16 (human)): 30%; kinase still bound, per cent of control (MAP2K2 (human)): 99%; kinase still bound, per cent of control (BLK (human)): 0.7%; kinase still bound, per cent of control (MKNK2 (human)): 84%; kinase still bound, per cent of control (EPHA8 (human)): 99%; kinase still bound, per cent of control (MLTK (human)): 93%; kinase still bound, per cent of control (MAP3K10 (human)): 67%; kinase still bound, per cent of control (MAP2K4 (human)): 100%
CCOc1cc2ncc(C#N)c(Nc3ccc(OCc4ccccn4)c(Cl)c3)c2cc1NC(=O)/C=C/CN(C)C | 100 | 100 | 98 | 77 | 96 | 100 | 1.4 | 27 | 37 | 78 | 91 | 99 | 93 | 1.4 | 100 | 89 | 6.8 | 81 | 100 | 3.7 | kinase still bound, per cent of control (RPS6KA1 KD1 (human)): 57%; kinase still bound, per cent of control (STK32B (human)): 73%; kinase still bound, per cent of control (FLT3 (human)): 100%; kinase still bound, per cent of control (PAK7 (human)): 72%; kinase still bound, per cent of control (GAK (human)): 10%; kinase still bound, per cent of control (TTK (human)): 100%; kinase still bound, per cent of control (MAP4K1 (human)): 45%; kinase still bound, per cent of control (TAOK3 (human)): 75%; kinase still bound, per cent of control (STK16 (human)): 96%; kinase still bound, per cent of control (MAP2K2 (human)): 0.5%; kinase still bound, per cent of control (DCLK1 (human)): 100%; kinase still bound, per cent of control (BLK (human)): 3%; kinase still bound, per cent of control (MKNK2 (human)): 99%; kinase still bound, per cent of control (EPHA8 (human)): 78%; kinase still bound, per cent of control (MLTK (human)): 70%; kinase still bound, per cent of control (MAP3K10 (human)): 88%; kinase still bound, per cent of control (MAP2K4 (human)): 72%
COc1cc(N2CCN(C)CC2)ccc1Nc1nc(N)c(C(=O)c2c(Cl)cccc2Cl)s1 | 85 | 100 | 99 | 62 | 91 | 84 | 1.6 | 100 | 82 | 100 | 71 | 42 | 100 | 100 | 84 | 66 | 61 | 90 | 100 | 86 | kinase still bound, per cent of control (FES (human)): 45%; kinase still bound, per cent of control (RPS6KA1 KD1 (human)): 100%; kinase still bound, per cent of control (CSNK1G1 (human)): 100%; kinase still bound, per cent of control (STK32B (human)): 76%; kinase still bound, per cent of control (FLT3 (human)): 96%; kinase still bound, per cent of control (PAK7 (human)): 63%; kinase still bound, per cent of control (GAK (human)): 73%; kinase still bound, per cent of control (TTK (human)): 20%; kinase still bound, per cent of control (GSK3B (human)): 100%; kinase still bound, per cent of control (MAP4K1 (human)): 90%; kinase still bound, per cent of control (TAOK3 (human)): 12%; kinase still bound, per cent of control (STK16 (human)): 90%; kinase still bound, per cent of control (MAP2K2 (human)): 93%; kinase still bound, per cent of control (DCLK1 (human)): 3%; kinase still bound, per cent of control (MKNK2 (human)): 77%; kinase still bound, per cent of control (EPHA8 (human)): 73%; kinase still bound, per cent of control (MLTK (human)): 100%; kinase still bound, per cent of control (MAP3K10 (human)): 100%; kinase still bound, per cent of control (MAP2K4 (human)): 70%
